Data from ChEMBL document CHEMBL1137172, “A library synthesis of 4-hydroxy-3-methyl-6-phenylbenzofuran-2-carboxylic acid ethyl ester derivatives as anti-tumor agents” (Bioorg Med Chem Lett, 2004).
Converted amounts (≈) assume the structure as drawn.

Assays:
WI-38 = assay: Effective concentration required for cytotoxicity against normal human WI-38 cell line; format: functional, cell-based
[1] = Effective concentration required for cytotoxicity against human VA-13 cell line; format: functional, cell-based
[2] = Partition coefficient (logP); format: physicochemical; settings: octanol/water

Row | SMILES | EC50 (WI-38) | EC50 [1] | logP [2]
1 | CCOC(=O)c1oc2cc(-c3ccccc3)cc(O)c2c1C | > 4 µg/mL | 40 ng/mL (≈ 0.135 µM) | 2.6
2 | CCOC(=O)c1oc2cc(-c3ccc(OCC)cc3)cc(O)c2c1C |  | > 4000 ng/mL | 
3 | CCOC(=O)c1oc2cc(-c3cccc(O)c3)cc(O)c2c1C |  | 520 ng/mL (≈ 1.66 µM) | 
4 | CCOC(=O)c1oc2cc(-c3ccc(OC)cc3)cc(O)c2c1C |  | > 4000 ng/mL | 
5 | CCOC(=O)c1oc2cc(-c3ccccc3OCc3ccccc3)cc(O)c2c1C |  | > 4000 ng/mL | 
6 | CCOC(=O)c1oc2cc(-c3ccc(O)cc3)cc(O)c2c1C |  | 75 ng/mL (≈ 0.24 µM) | 
7 | CCOC(=O)c1oc2cc(-c3cccc(OC)c3)cc(O)c2c1C |  | 80 ng/mL (≈ 0.245 µM) | 
8 | CCOC(=O)c1oc2cc(-c3ccc(Br)cc3)cc(O)c2c1C |  | > 4000 ng/mL | 
9 | CCOC(=O)c1oc2cc(-c3ccccc3O)cc(O)c2c1C |  | 310 ng/mL (≈ 0.993 µM) | 
10 | CCOC(=O)c1oc2cc(-c3cccc(OCc4ccccc4)c3)cc(O)c2c1C |  | 850 ng/mL (≈ 2.11 µM) | 
11 | COc1cccnc1C(=O)c1oc2cc(-c3ccccc3)cc(O)c2c1C |  | 28 ng/mL (≈ 0.0779 µM) | 2.2
12 | CCOC(=O)c1oc2cc(-c3c(Cl)cccc3Cl)cc(O)c2c1C |  | > 4000 ng/mL | 
13 | CCOC(=O)c1oc2cc(-c3ccccc3OC)cc(O)c2c1C |  | 380 ng/mL (≈ 1.16 µM) | 
14 | COc1ccc(C(=O)c2[nH]c3cc(-c4cccc(F)c4)cc(O)c3c2C)c(OC)c1 |  | 120 ng/mL (≈ 0.296 µM) | 2.7
15 | CCOC(=O)c1oc2cc(-c3cccc([N+](=O)[O-])c3)cc(O)c2c1C |  | 75 ng/mL (≈ 0.22 µM) | 
16 | CCOC(=O)c1oc2cc(-c3ccccc3Cl)cc(O)c2c1C |  | 350 ng/mL (≈ 1.06 µM) | 
17 | CCOC(=O)c1oc2cc(-c3cccc(Cl)c3)cc(O)c2c1C |  | 80 ng/mL (≈ 0.242 µM) | 
18 | CCOC(=O)c1oc2cc(-c3ccc(OCc4ccccc4)cc3)cc(O)c2c1C |  | > 4000 ng/mL | 
19 | CCOC(=O)c1oc2cc(-c3cccc(C(F)(F)F)c3)cc(O)c2c1C |  | 700 ng/mL (≈ 1.92 µM) | 
20 | CCOC(=O)c1oc2cc(CC(C)(C)C)cc(O)c2c1C |  | > 4000 ng/mL | 

Row | SMILES | EC50 (WI-38) | EC50 [1] | logP [2]
21 | CCOC(=O)c1oc2cc(-c3cccc(Br)c3)cc(O)c2c1C |  | 85 ng/mL (≈ 0.227 µM) | 
22 | COc1ccc(C(=O)c2oc3cc(-c4cccc(F)c4)cc(O)c3c2C)c(OC)c1 |  | 30 ng/mL (≈ 0.0738 µM) | 2.7
23 | CCOC(=O)c1oc2cc(-c3cccs3)cc(O)c2c1C |  | 160 ng/mL (≈ 0.529 µM) | 
24 | CCOC(=O)c1oc2cc(-c3cccc(C)c3)cc(O)c2c1C |  | 80 ng/mL (≈ 0.258 µM) | 
25 | CCOC(=O)c1oc2cc(-c3cccc(F)c3)cc(O)c2c1C |  | 17 ng/mL (≈ 0.0541 µM) | 2.7
26 | COc1cccnc1C(=O)c1oc2cc(-c3cccc(F)c3)cc(O)c2c1C |  | 27 ng/mL (≈ 0.0715 µM) | 2.3
27 | CCOC(=O)c1[nH]c2cc(-c3ccccc3)cc(O)c2c1C |  | 470 ng/mL (≈ 1.59 µM) | 2.6
28 | COc1ccc(C(=O)c2oc3cc(-c4ccccc4)cc(O)c3c2C)c(OC)c1 |  | 40 ng/mL (≈ 0.103 µM) | 2.6
29 | CCOC(=O)c1oc2cc(C3CCCCC3)cc(O)c2c1C |  | > 4000 ng/mL | 
30 | CCOC(=O)c1oc2cc(-c3c(F)cccc3Cl)cc(O)c2c1C |  | > 4000 ng/mL | 
31 | CCOC(=O)c1oc2cc(-c3ccc(OCCc4ccccc4)cc3)cc(O)c2c1C |  | > 4000 ng/mL | 
32 | CCOC(=O)c1oc2cc(-c3ccc(Cl)cc3Cl)cc(O)c2c1C |  | > 4000 ng/mL | 
33 | CCOC(=O)c1oc2cc(-c3cccc(N)c3)cc(O)c2c1C |  | 90 ng/mL (≈ 0.289 µM) | 
34 | CCOC(=O)c1oc2cc(-c3ccc(C)cc3)cc(O)c2c1C |  | > 4000 ng/mL | 
35 | CCOC(=O)c1oc2cc(-c3ccccc3Br)cc(O)c2c1C |  | 390 ng/mL (≈ 1.04 µM) | 
36 | CCOC(=O)c1oc2cc(-c3ccco3)cc(O)c2c1C |  | 180 ng/mL (≈ 0.629 µM) | 
37 | CCOC(=O)c1oc2cc(-c3ccc(OC)c(OC)c3)cc(O)c2c1C |  | > 4000 ng/mL | 
38 | CCOC(=O)c1oc2cc(-c3ccccc3F)cc(O)c2c1C |  | 48 ng/mL (≈ 0.153 µM) | 
39 | CCOC(=O)c1oc2cc(-c3ccc(Cl)cc3)cc(O)c2c1C |  | > 4000 ng/mL | 
40 | CCOC(=O)c1oc2cc(-c3ccc(F)cc3)cc(O)c2c1C |  | 370 ng/mL (≈ 1.18 µM) | 
